Assay results as given in ChEMBL document CHEMBL1201862, “PubChem BioAssay data set” (2004).
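Five compound concentrations were applied to cells in 96-well plates for 48 hours; endpoints were derived by simple linear interpolation of the resulting dose-response curve. The concentration for 50% growth inhibition is given as GI50.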 The source made the active and inactive calls. No stated cut-off is given here; in the data, active = GI50 up to about 1.1 µM and inactive = higher.

How the values were obtained:
Experiment in all cases: NCI tumour cell line growth inhibition, 48 h
SNB-75 = tested on: SNB-75
HCC 2998 = tested on: HCC 2998
IGROV-1 = tested on: IGROV-1
M19-MEL = tested on: M19-MEL
HCT-15 = tested on: HCT-15
SK-OV-3 = tested on: SK-OV-3
K562 = tested on: K562
OVCAR-4 = tested on: OVCAR-4
RPMI-8226 = tested on: RPMI-8226
SF-268 = tested on: SF-268
EKVX = tested on: EKVX
HT-29 = tested on: HT-29
HOP-92 = tested on: HOP-92
A549 = tested on: A549
SR = tested on: SR
DMS-114 = tested on: DMS-114
SK-MEL-2 = tested on: SK-MEL-2
SF-295 = tested on: SF-295
CCRF-CEM = tested on: CCRF-CEM
HCT-116 = tested on: HCT-116
Malme-3M = tested on: Malme-3M
SN12C = tested on: SN12C
SK-MEL-28 = tested on: SK-MEL-28
NCI-H522 = tested on: NCI-H522
786-0 = tested on: 786-0
OVCAR-5 = tested on: OVCAR-5
UACC-62 = tested on: UACC-62
OVCAR-8 = tested on: OVCAR-8
KM12 = tested on: KM12
HL-60 = tested on: HL-60
NCI-H226 = tested on: NCI-H226
UACC-257 = tested on: UACC-257
LOX IMVI = tested on: LOX IMVI
NCI-H460 = tested on: NCI-H460
KM-20L2 = tested on: KM-20L2
DMS-273 = tested on: DMS-273
HOP-62 = tested on: HOP-62
DLD-1 = tested on: DLD-1
OVCAR-3 = tested on: OVCAR-3
NCI-H23 = tested on: NCI-H23
SF-539 = tested on: SF-539
RXF 393 = tested on: RXF 393
M14 = tested on: M14
SK-MEL-5 = tested on: SK-MEL-5
MOLT-4 = tested on: MOLT-4
SNB-19 = tested on: SNB-19
COLO 205 = tested on: COLO 205
UO-31 = tested on: UO-31
ACHN = tested on: ACHN
SW-620 = tested on: SW-620
LXFL 529 = tested on: LXFL 529
U-251 = tested on: U-251
HOP-18 = tested on: HOP-18
TK-10 = tested on: TK-10
SNB-78 = tested on: SNB-78
CAKI-1 = tested on: CAKI-1
A498 = tested on: A498

For `CCOC(=O)N1Cc2ccoc2C1`, the GI50 (SNB-75) was > 100 µM (inactive), the GI50 (HCC 2998) was > 100 µM (inactive) and the GI50 (IGROV-1) was > 100 µM (inactive). For the same molecule, the GI50 (M19-MEL) was > 100 µM (inactive), the GI50 (HCT-15) was over 100 µM and the GI50 (SK-OV-3) was > 100 µM (inactive). For the same molecule, the GI50 (K562) was > 100 µM (inactive), the GI50 (OVCAR-4) was > 100 µM (inactive) and the GI50 (RPMI-8226) was > 100 µM (inactive). The GI50 (SF-268) was 0.769 µM (active), the GI50 (EKVX) was > 100 µM (inactive) and the GI50 (HT-29) was > 100 µM (inactive). For the same molecule, the GI50 (HOP-92) was > 100 µM (inactive), the GI50 (A549) was 43.7 µM (inactive) and the GI50 (SR) was > 100 µM (inactive). For the same molecule, the GI50 (DMS-114) was > 100 µM (inactive), the GI50 (SK-MEL-2) was > 100 µM (inactive) and the GI50 (SF-295) was > 100 µM (inactive). For the same molecule, the GI50 (CCRF-CEM) was > 100 µM (inactive), the GI50 (HCT-116) was > 100 µM (inactive) and the GI50 (Malme-3M) was > 100 µM (inactive). The GI50 (SN12C) was > 100 µM (inactive), the GI50 (SK-MEL-28) was > 100 µM (inactive) and the GI50 (NCI-H522) was > 100 µM (inactive). For the same molecule, the GI50 (786-0) was > 100 µM (inactive), the GI50 (OVCAR-5) was > 100 µM (inactive) and the GI50 (UACC-62) was > 100 µM (inactive). For the same molecule, the GI50 (OVCAR-8) was > 100 µM (inactive), the GI50 (KM12) was > 100 µM (inactive) and the GI50 (HL-60) was > 100 µM (inactive). For the same molecule, the GI50 (NCI-H226) was > 100 µM (inactive), the GI50 (UACC-257) was > 100 µM (inactive) and the GI50 (LOX IMVI) was > 100 µM (inactive). The GI50 (NCI-H460) was > 100 µM (inactive), the GI50 (KM-20L2) was > 100 µM (inactive) and the GI50 (DMS-273) was > 100 µM (inactive). For the same molecule, the GI50 (HOP-62) was > 100 µM (inactive), the GI50 (DLD-1) was > 100 µM (inactive) and the GI50 (OVCAR-3) was > 100 µM (inactive). The GI50 (NCI-H23) was > 100 µM (inactive), the GI50 (SF-539) was > 100 µM (inactive) and the GI50 (RXF 393) was > 100 µM (inactive). The GI50 (M14) was > 100 µM (inactive), the GI50 (SK-MEL-5) was > 100 µM (inactive) and the GI50 (MOLT-4) was > 100 µM (inactive). For the same molecule, the GI50 (SNB-19) was > 100 µM (inactive), the GI50 (COLO 205) was > 100 µM (inactive) and the GI50 (UO-31) was > 100 µM (inactive). For the same molecule, the GI50 (ACHN) was > 100 µM (inactive), the GI50 (SW-620) was > 100 µM (inactive) and the GI50 (LXFL 529) was > 100 µM (inactive). The GI50 (U-251) was > 100 µM (inactive), the GI50 (HOP-18) was > 100 µM (inactive) and the GI50 (TK-10) was > 100 µM (inactive).

For `CCOc1ccc2c(c1)[n+]([O-])c(S(=O)(=O)c1ccc(C)cc1)c(N)[n+]2[O-]`, the GI50 (SNB-75) was 91.6 µM (inactive), the GI50 (HCC 2998) was > 100 µM (inactive) and the GI50 (IGROV-1) was > 100 µM (inactive). For the same molecule, the GI50 (M19-MEL) was > 100 µM (inactive), the GI50 (SK-OV-3) was > 100 µM (inactive) and the GI50 (K562) was > 100 µM (inactive). The GI50 (OVCAR-4) was > 100 µM (inactive), the GI50 (RPMI-8226) was > 100 µM (inactive) and the GI50 (SF-268) was > 100 µM (inactive). The GI50 (EKVX) was > 100 µM (inactive), the GI50 (HT-29) was > 100 µM (inactive) and the GI50 (HOP-92) was > 100 µM (inactive). The GI50 (A549) was > 100 µM (inactive), the GI50 (DMS-114) was > 100 µM (inactive) and the GI50 (SK-MEL-2) was > 100 µM (inactive). For the same molecule, the GI50 (SF-295) was > 100 µM (inactive), the GI50 (CCRF-CEM) was > 100 µM (inactive) and the GI50 (HCT-116) was > 100 µM (inactive). For the same molecule, the GI50 (Malme-3M) was > 100 µM (inactive), the GI50 (SK-MEL-28) was > 100 µM (inactive) and the GI50 (SNB-78) was > 100 µM (inactive). The GI50 (NCI-H522) was 49.2 µM (inactive), the GI50 (786-0) was > 100 µM (inactive) and the GI50 (OVCAR-5) was > 100 µM (inactive). For the same molecule, the GI50 (UACC-62) was > 100 µM (inactive), the GI50 (OVCAR-8) was > 100 µM (inactive) and the GI50 (KM12) was > 100 µM (inactive). The GI50 (HL-60) was > 100 µM (inactive), the GI50 (NCI-H226) was > 100 µM (inactive) and the GI50 (UACC-257) was > 100 µM (inactive). The GI50 (CAKI-1) was > 100 µM (inactive), the GI50 (NCI-H460) was > 100 µM (inactive) and the GI50 (KM-20L2) was > 100 µM (inactive). For the same molecule, the GI50 (HOP-62) was > 100 µM (inactive), the GI50 (DLD-1) was > 100 µM (inactive) and the GI50 (OVCAR-3) was > 100 µM (inactive). The GI50 (NCI-H23) was > 100 µM (inactive), the GI50 (SF-539) was > 100 µM (inactive) and the GI50 (M14) was > 100 µM (inactive). For the same molecule, the GI50 (SK-MEL-5) was > 100 µM (inactive), the GI50 (MOLT-4) was > 100 µM (inactive) and the GI50 (A498) was > 100 µM (inactive). The GI50 (SNB-19) was > 100 µM (inactive), the GI50 (COLO 205) was > 100 µM (inactive) and the GI50 (UO-31) was > 100 µM (inactive). The GI50 (ACHN) was > 100 µM (inactive), the GI50 (SW-620) was > 100 µM (inactive) and the GI50 (LXFL 529) was > 100 µM (inactive). The GI50 (U-251) was > 100 µM (inactive), the GI50 (HOP-18) was > 100 µM (inactive) and the GI50 (TK-10) was > 100 µM (inactive).

With `N#CN1CCC2CC(=O)CCC2C1` (centres undefined) the GI50 (SNB-75) was > 100 µM (inactive), the GI50 (HCC 2998) was > 100 µM (inactive) and the GI50 (IGROV-1) was > 100 µM (inactive). The GI50 (HCT-15) was over 100 µM, the GI50 (SK-OV-3) was > 100 µM (inactive) and the GI50 (K562) was > 100 µM (inactive). The GI50 (OVCAR-4) was > 100 µM (inactive), the GI50 (SF-268) was > 100 µM (inactive) and the GI50 (HOP-92) was > 100 µM (inactive). The GI50 (A549) was > 100 µM (inactive), the GI50 (SR) was > 100 µM (inactive) and the GI50 (DMS-114) was > 100 µM (inactive). For the same molecule, the GI50 (SK-MEL-2) was > 100 µM (inactive), the GI50 (HCT-116) was > 100 µM (inactive) and the GI50 (Malme-3M) was > 100 µM (inactive). The GI50 (SN12C) was > 100 µM (inactive), the GI50 (SK-MEL-28) was > 100 µM (inactive) and the GI50 (SNB-78) was > 100 µM (inactive). The GI50 (786-0) was > 100 µM (inactive), the GI50 (OVCAR-5) was > 100 µM (inactive) and the GI50 (UACC-62) was > 100 µM (inactive). The GI50 (KM12) was > 100 µM (inactive), the GI50 (HL-60) was > 100 µM (inactive) and the GI50 (NCI-H226) was > 100 µM (inactive). For the same molecule, the GI50 (CAKI-1) was > 100 µM (inactive), the GI50 (LOX IMVI) was > 100 µM (inactive) and the GI50 (KM-20L2) was > 100 µM (inactive). For the same molecule, the GI50 (OVCAR-3) was > 100 µM (inactive), the GI50 (NCI-H23) was > 100 µM (inactive) and the GI50 (RXF 393) was > 100 µM (inactive). The GI50 (M14) was > 100 µM (inactive), the GI50 (SK-MEL-5) was > 10 µM (inactive) and the GI50 (MOLT-4) was > 100 µM (inactive). The GI50 (SNB-19) was > 100 µM (inactive), the GI50 (UO-31) was > 100 µM (inactive) and the GI50 (ACHN) was > 100 µM (inactive). The GI50 (SW-620) was > 100 µM (inactive), the GI50 (U-251) was > 100 µM (inactive) and the GI50 (TK-10) was > 100 µM (inactive).
